Results from PubChem BioAssay (NCI).
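Cells were grown in 96-well plates and exposed to each compound for 48 hours at five concentrations; endpoints were interpolated linearly between bracketing concentrations, or set to the highest concentration if not reached. TGI: concentration producing complete growth inhibition.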

Key:
Experiment in all cases: NCI anticancer screen, dose series, 48 h
A549 NSCLC = tested on: A549 NSCLC
BT-549 breast = tested on: BT-549 breast
HCC-2998 colon = tested on: HCC-2998 colon
MDA-N = tested on: MDA-N
OVCAR-3 ovarian = tested on: OVCAR-3 ovarian
SF-268 CNS = tested on: SF-268 CNS
SN12C renal = tested on: SN12C renal
UACC-62 melanoma = tested on: UACC-62 melanoma

`O=C1Cc2c([nH]c3c(Br)cccc23)-c2ccccc2N1` showed a TGI (A549 NSCLC) of over 100 µM, a TGI (BT-549 breast) of over 100 µM and a TGI (HCC-2998 colon) of over 100 µM. The TGI (MDA-N) was over 100 µM, the TGI (OVCAR-3 ovarian) was over 100 µM and the TGI (SF-268 CNS) was over 100 µM. For the same compound, the TGI (SN12C renal) was over 100 µM and the TGI (UACC-62 melanoma) was over 100 µM.
In the case of `CCOC(=O)C1(NC(=O)OC(C)(C)C)CCc2[nH]oc(=O)c2C1` (stereo not given), the TGI (A549 NSCLC) is reported as over 100 µM, the TGI (BT-549 breast) is reported as over 100 µM and the TGI (HCC-2998 colon) is reported as over 100 µM. The TGI (MDA-N) was over 100 µM, the TGI (OVCAR-3 ovarian) was over 100 µM and the TGI (SN12C renal) was over 100 µM. The TGI (UACC-62 melanoma) was over 100 µM.
`N=c1sc(N2CCOCC2)nn1CC(=O)c1ccccc1` showed a TGI (A549 NSCLC) of over 100 µM, a TGI (BT-549 breast) of over 100 µM and a TGI (HCC-2998 colon) of over 100 µM. For the same compound, the TGI (MDA-N) was over 100 µM, the TGI (OVCAR-3 ovarian) was over 100 µM and the TGI (SF-268 CNS) was over 100 µM. It also gave a TGI (SN12C renal) of over 100 µM and a TGI (UACC-62 melanoma) of over 100 µM.
For `Nc1nc(Nc2cc(F)c(Cl)c(F)c2)cc(=O)[nH]1`, the TGI (A549 NSCLC) was over 100 µM, the TGI (BT-549 breast) was over 100 µM and the TGI (HCC-2998 colon) was 61.5 µM. It also gave a TGI (OVCAR-3 ovarian) of over 100 µM, a TGI (SF-268 CNS) of over 100 µM and a TGI (SN12C renal) of over 100 µM. For the same compound, the TGI (UACC-62 melanoma) was over 100 µM.
`Oc1[nH]c2ccccc2c1N=Nc1nc(-c2ccccc2)cs1` gave a TGI (A549 NSCLC) of over 100 µM, a TGI (HCC-2998 colon) of over 100 µM and a TGI (MDA-N) of over 100 µM. It also gave a TGI (OVCAR-3 ovarian) of over 100 µM and a TGI (SN12C renal) of over 100 µM.
In the case of `O=C(c1ccccc1)n1c2ccc(Br)cc2c2nc3ccccc3nc21`, the TGI (BT-549 breast) is reported as over 100 µM, the TGI (HCC-2998 colon) is reported as over 100 µM and the TGI (MDA-N) is reported as over 100 µM. For the same compound, the TGI (OVCAR-3 ovarian) was over 100 µM, the TGI (SF-268 CNS) was over 100 µM and the TGI (SN12C renal) was over 100 µM. The TGI (UACC-62 melanoma) was over 100 µM.
With `CC(C)=C[C@@H]1C[C@H](C)[C@H]2CC[C@H](C)[C@H]3C(=O)C(O)=C(C)C(=O)[C@]123` the TGI (A549 NSCLC) was over 100 µM, the TGI (BT-549 breast) was over 100 µM and the TGI (HCC-2998 colon) was over 100 µM. The TGI (MDA-N) was over 100 µM, the TGI (OVCAR-3 ovarian) was over 100 µM and the TGI (SF-268 CNS) was over 100 µM. The TGI (SN12C renal) was over 100 µM and the TGI (UACC-62 melanoma) was over 100 µM.
`CCc1n[nH]c(=O)n1-c1ccncc1` gave a TGI (A549 NSCLC) of over 100 µM, a TGI (BT-549 breast) of over 100 µM and a TGI (HCC-2998 colon) of over 100 µM. The TGI (MDA-N) was over 100 µM, the TGI (OVCAR-3 ovarian) was over 100 µM and the TGI (SF-268 CNS) was over 100 µM. For the same compound, the TGI (SN12C renal) was over 100 µM.
With `Cc1nnc(N)s/c1=N/O` the TGI (A549 NSCLC) was over 100 µM, the TGI (BT-549 breast) was over 100 µM and the TGI (HCC-2998 colon) was over 100 µM. The TGI (MDA-N) was over 100 µM, the TGI (OVCAR-3 ovarian) was over 100 µM and the TGI (SF-268 CNS) was over 100 µM. For the same compound, the TGI (SN12C renal) was over 100 µM and the TGI (UACC-62 melanoma) was over 100 µM.
Compound `C(/Cc1ccc2c(c1)OCO2)=N\NC1=NCCCCN1` has a TGI (A549 NSCLC) of over 100 µM, a TGI (BT-549 breast) of over 100 µM and a TGI (HCC-2998 colon) of over 100 µM. For the same compound, the TGI (OVCAR-3 ovarian) was over 100 µM, the TGI (SF-268 CNS) was over 100 µM and the TGI (SN12C renal) was over 100 µM. The TGI (UACC-62 melanoma) was over 100 µM.
In the case of `CNC(=O)N(C)C(=O)c1ccccc1C(=O)N(C)C(=O)NC`, the TGI (A549 NSCLC) is reported as over 10 µM, the TGI (BT-549 breast) is reported as over 10 µM and the TGI (HCC-2998 colon) is reported as over 10 µM. The TGI (MDA-N) was over 10 µM, the TGI (OVCAR-3 ovarian) was over 10 µM and the TGI (SF-268 CNS) was over 10 µM. It also gave a TGI (SN12C renal) of over 10 µM and a TGI (UACC-62 melanoma) of over 10 µM.
With `CNc1nc(OC)c2c(n1)[n+](C)cn2C` the TGI (A549 NSCLC) was over 100 µM, the TGI (BT-549 breast) was over 100 µM and the TGI (MDA-N) was over 100 µM. For the same compound, the TGI (OVCAR-3 ovarian) was over 100 µM, the TGI (SF-268 CNS) was over 100 µM and the TGI (SN12C renal) was over 100 µM. The TGI (UACC-62 melanoma) was over 100 µM.
`Nc1c(/C=C/c2cc3cc(C4=NCCN4)ccc3o2)[nH]c2cc(C3=NCCN3)ccc12` was tested, and the TGI (A549 NSCLC) was over 100 µM, the TGI (BT-549 breast) was over 100 µM and the TGI (HCC-2998 colon) was over 100 µM. The TGI (MDA-N) was over 100 µM, the TGI (OVCAR-3 ovarian) was over 100 µM and the TGI (SF-268 CNS) was over 100 µM. The TGI (SN12C renal) was over 100 µM and the TGI (UACC-62 melanoma) was over 100 µM.
